Measured values published in ChEMBL document CHEMBL1136889, “The application of the phosphoramidate ProTide approach confers micromolar potency against hepatitis C virus on inactive agent 4'-azidoinosine: kinase bypass on a dual base/sugar modified nucleoside” (Bioorg Med Chem Lett, 2009).
pEC50: −log10 of the molar value.

Experiments:
Hepatitis C virus = test: Antiviral activity against HCV 1b in human HuH7 cells assessed as renilla luciferase activity by replicon assay; type: functional, organism-based, Hepacivirus hominis; conditions: genotype 1b, Huh-7
[1] = Cytotoxicity against human HuH7 cells assessed as [3H]thymidine incorporation; type: cell-based, Huh-7

Compound | pEC50 (Hepatitis C virus) | CC50 [1]
[N-]=[N+]=N[C@]1(CO)O[C@@H](n2cnc3c(=O)[nH]cnc32)[C@H](O)[C@@H]1O | < 4.00 | > 100 µM
CC(C)OC(=O)[C@H](C)NP(=O)(OC[C@@]1(N=[N+]=[N-])O[C@@H](n2cnc3c(=O)[nH]cnc32)[C@H](O)[C@@H]1O)Oc1cccc2ccccc12 (stereo partly drawn) | 5.21 | > 100 µM
C[C@H](NP(=O)(OC[C@@]1(N=[N+]=[N-])O[C@@H](n2cnc3c(=O)[nH]cnc32)[C@H](O)[C@@H]1O)Oc1ccccc1)C(=O)OC(C)(C)C (stereo partly drawn) | < 4.00 | > 100 µM
CC(C)OC(=O)[C@H](C)NP(=O)(OC[C@@]1(N=[N+]=[N-])O[C@@H](n2cnc3c(=O)[nH]cnc32)[C@H](O)[C@@H]1O)Oc1ccccc1 (stereo partly drawn) | < 4.00 | > 100 µM
C[C@H](NP(=O)(OC[C@@]1(N=[N+]=[N-])O[C@@H](n2cnc3c(=O)[nH]cnc32)[C@H](O)[C@@H]1O)Oc1cccc2ccccc12)C(=O)OCc1ccccc1 (stereo partly drawn) | 5.37 | > 100 µM
CCOC(=O)[C@H](C)NP(=O)(OC[C@@]1(N=[N+]=[N-])O[C@@H](n2cnc3c(=O)[nH]cnc32)[C@H](O)[C@@H]1O)Oc1ccccc1 (stereo partly drawn) | < 4.00 | > 100 µM
C[C@H](NP(=O)(OC[C@@]1(N=[N+]=[N-])O[C@@H](n2cnc3c(=O)[nH]cnc32)[C@H](O)[C@@H]1O)Oc1ccccc1)C(=O)OCc1ccccc1 (stereo partly drawn) | < 4.00 | > 100 µM
CCOC(=O)[C@H](C)NP(=O)(OC[C@@]1(N=[N+]=[N-])O[C@@H](n2cnc3c(=O)[nH]cnc32)[C@H](O)[C@@H]1O)Oc1cccc2ccccc12 (stereo partly drawn) | 4.79 | > 100 µM
C[C@H](NP(=O)(OC[C@@]1(N=[N+]=[N-])O[C@@H](n2cnc3c(=O)[nH]cnc32)[C@H](O)[C@@H]1O)Oc1cccc2ccccc12)C(=O)OC(C)(C)C (stereo partly drawn) | < 4.00 | > 100 µM
